Data published in US7718663B2, “Quinazoline derivatives and medicaments” (Nippon Shinyaku Co., Ltd., priority 2002, dated 2010).
pKi: −log10 of the molar value. Structures can show the parent of a compound that is named as a salt.

Experiments:
[1] = target: T1, human nociceptin receptor (Homo sapiens, UniProt P41146); assay: Nociceptin receptor binding assay ([3H]nociceptin); conditions: cell membrane of human nociceptin receptor-expressing cell, 0.08 nM [3H]nociceptin, 25° C. 60 minutes; read-out: Affinity for nociceptin receptors Ki value
T1 construct: expressed in transfected cells
T1 sequence (P41146 whole entry): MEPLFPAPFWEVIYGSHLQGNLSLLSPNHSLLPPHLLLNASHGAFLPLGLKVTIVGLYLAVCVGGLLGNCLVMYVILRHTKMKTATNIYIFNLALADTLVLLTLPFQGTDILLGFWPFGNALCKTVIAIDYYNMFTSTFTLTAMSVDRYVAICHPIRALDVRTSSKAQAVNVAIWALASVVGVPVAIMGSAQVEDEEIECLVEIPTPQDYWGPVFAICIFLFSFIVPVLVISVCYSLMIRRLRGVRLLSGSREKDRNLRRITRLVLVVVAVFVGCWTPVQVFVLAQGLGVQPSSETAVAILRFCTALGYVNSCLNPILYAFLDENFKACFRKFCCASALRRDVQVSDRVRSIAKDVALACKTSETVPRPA
Description: Nociceptin Receptor Binding Assay
A cell membrane suspension obtained from a human nociceptin receptor-expressing cell was prepared so that it contained 5 to 10 μg/mL of the membrane protein in a Tris buffer [50 mM Tris-HCl (pH7.8), 5 mM MgCl2, 1 mM EGTA [Ethylene Glycol Bis(β-aminoethylether)-N,N,N′,N′-tetraacetic Acid], 0.1% BSA (Bovine Serum Alubumin)]. To this, [^3H]nociceptin (diluted at the final concentration of 0.08 nM with the Tris buffer) and each test compound was added and the mixture was incubated at 25° C. for 60 minutes. Using a cell harvester and a washing solution [50 mM Tris-HCl (pH7.8), 4° C.], the membrane was recovered onto a GF/B filter which had been pretreated with 0.3% PEI (polyethylenimine), which was then washed further 3 times. The filter was transferred to a vial, to which a scintillator was added, and the radioactivity was measured using a liquid scintillation counter. Noted that a non-specific binding was regarded as a binding in the presence of 10 μM nociceptin, and a specific binding was obtained by subtracting the non-specific binding from the total binding. From a ratio of binding inhibition in the presence of the tested substance, an IC50 value was obtained, and was then used together with the Kd value for [^3H]nociceptin to calculate the Ki value for the tested substance.

rat μ opioid receptor = target: T2, rat μ opioid receptor (Rattus norvegicus, UniProt P33535); assay: μ opioid receptor binding assay ([3H]diprenorphine); conditions: rat μ opioid receptor-expressing cell membrane, 0.5 nM [3H]diprenorphine, 25° C. 60 minutes; read-out: Affinity for μ receptors Ki value
T2 construct: expressed in transfected cells
T2 sequence (P33535 whole entry): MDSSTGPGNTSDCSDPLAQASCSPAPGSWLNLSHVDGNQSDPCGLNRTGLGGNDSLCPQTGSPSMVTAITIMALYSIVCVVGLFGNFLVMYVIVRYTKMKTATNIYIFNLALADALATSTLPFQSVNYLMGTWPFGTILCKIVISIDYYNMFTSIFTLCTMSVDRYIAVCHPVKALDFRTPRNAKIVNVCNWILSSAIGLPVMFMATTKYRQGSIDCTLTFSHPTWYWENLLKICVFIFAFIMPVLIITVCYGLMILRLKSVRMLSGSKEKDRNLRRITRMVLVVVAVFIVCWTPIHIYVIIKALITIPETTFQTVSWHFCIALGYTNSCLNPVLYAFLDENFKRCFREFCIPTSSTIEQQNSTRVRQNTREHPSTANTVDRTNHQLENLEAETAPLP
Description: μ Opioid Receptor Binding Assay
A rat μ opioid receptor-expressing cell membrane preparation was prepared so that it contained 8.5 μg/mL of the membrane protein in a Tris buffer [50 mM Tris-HCl (pH7.8), 5 mM MgCl2, 1 mM EGTA, 0.1% BSA]. To this, [^3H]diprenorphine (diluted at the final concentration of 0.5 nM with the Tris buffer) and each test compound was added and the mixture was incubated at 25° C. for 60 minutes. Using a cell harvester and a washing solution [50 mM Tris-HCl (pH7.8), 4° C.], the membrane was recovered onto a GF/B filter which had been pretreated with 0.3% PEI, which was then washed further 3 times. The filter was transferred to a vial, to which a scintillator was added, and the radioactivity was measured using a liquid scintillation counter. Noted that a non-specific binding was regarded as a binding in the presence of […], and a specific binding was obtained by subtracting the non-specific binding from the total binding. From a ratio of binding inhibition in the presence of the tested substance, an IC50 value was obtained, and was then used together with the Kd value for [^3H]diprenorphine to calculate the Ki value for the tested substance.

ICR male mice = assay: Mouse eye-scratching behavior induced by serotonin; assay type: in vivo; conditions: 0.5% test compound, 10 μl dropped into eye five minutes before 1% serotonin; counted for 10 minutes
Description: Effect on Mouse Eye-scratching Behavior Induced by Serotonin
After dropping 10 μl of 1% serotonin hydrochloride (hereinafter referred to as serotonin) into right eye of ICR male mice (4 to 6 weeks old), the number of eye-scratcing behavior induced by dropping of serotonin was measured for 10 minutes.
As the test compound, inventive compounds of Example 1, Example 2, Example 3, Example 6, Example 12, Example 29, Example 52, Example 364, Example 381 and Example 383 were used. Five minutes before dropping serotonin, 10 μl of each test compound was dropped. Distilled water as a solvent of the test compound was dropped as a control group.

Structure (SMILES) | pKi [1] | pKi (rat μ opioid receptor) | Average number of scratching behavior (ICR male mice)
COc1ccc(C(=O)Nc2nc(N[C@H]3CCCC[C@H]3NC(=N)N)c3cc(C)ccc3n2)cc1.Cl.Cl [Example 12, N-{4-[((1S,2R)-2-{[amino(imino)methyl]amino}cyclohexyl)amino]-6-methylquinazolin-2-yl}-4-methoxybenzamide dihydrochloride] | 9.24 | 6.17 | 8.17
Cc1ccc2nc(NC(=O)c3cc4ccccc4s3)nc(N[C@H]3CCCC[C@H]3NC(=N)N)c2c1.Cl.Cl [Example 1, N-{4-[((1S,2R)-2-{[amino(imino)methyl]amino}cyclohexyl)amino]-6-methylquinazolin-2-yl}-1-benzothiophene-2-carboxamide dihydrochloride] | 9.82 | 6.74 | 9.57
Cc1ccc2nc(C(=O)NCC(C)C)nc(N[C@H]3CCCC[C@H]3NC(=N)N)c2c1.Cl.Cl [Example 383, 4-[((1S,2R)-2-{[amino(imino)methyl]amino}cyclohexyl)amino]-N-isobutyl-6-methylquinazoline-2-carboxamide dihydrochloride] | – | – | 2.33
Cc1ccc2nc(C(=O)NCCc3ccsc3)nc(N[C@H]3CCCC[C@H]3NC(=N)N)c2c1.Cl.Cl [Example 381, 4-[((1S,2R)-2-{[amino(imino)methyl]amino}cyclohexyl)amino]-6-methyl-N-[2-(3-thienyl)ethyl]quinazoline-2-carboxamide dihydrochloride] | – | – | 5.00
COc1ccc(C(=O)Nc2nc(N[C@H]3CCCC[C@H]3NC(=N)N)c3cc(C)ccc3n2)c(OC)c1.Cl.Cl [Example 6, N-{4-[((1S,2R)-2-{[amino(imino)methyl]amino}cyclohexyl)amino]-6-methylquinazolin-2-yl}-2,4-dimethoxybenzamide dihydrochloride] | 9.17 | 6.26 | 2.38
Cc1ccc2nc(C(=O)NC3CCCCCC3)nc(N[C@H]3CCCC[C@H]3NC(=N)N)c2c1.Cl.Cl [Example 364, 4-[((1S,2R)-2-{[amino(imino)methyl]amino}cyclohexyl)amino]-N-cycloheptyl-6-methylquinazoline-2-carboxamide dihydrochloride] | – | – | 5.17
Cc1ccc2nc(C(=O)Nc3ccc(C)c(C)c3)nc(N[C@H]3CCCC[C@H]3NC(=N)N)c2c1.Cl.Cl [Example 52, 4-[((1S,2R)-2-{[amino(imino)methyl]amino}cyclohexyl)amino]-N-(3,4-dimethylphenyl)-6-methylquinazoline-2-carboxamide dihydrochloride] | – | – | 4.50
COc1ccc(NC(=O)c2nc(N[C@H]3CCCC[C@H]3NC(=N)N)c3cc(C)ccc3n2)cc1.Cl.Cl [Example 2, 4-[((1S,2R)-2-{[amino(imino)methyl]amino}cyclohexyl)amino]-N-(4-methoxyphenyl)-6-methylquinazoline-2-carboxamide dihydrochloride] | – | – | 7.25
Cc1ccc2nc(NC(=O)c3cc4ccccc4o3)nc(N[C@H]3CCCC[C@H]3NC(=N)N)c2c1.Cl.Cl [Example 3, N-{4-[((1S,2R)-2-{[amino(imino)methyl]amino}cyclohexyl)amino]-6-methylquinazolin-2-yl}-1-benzofuran-2-carboxamide dihydrochloride] | 9.85 | 6.59 | 2.33
COc1ccc2cc(C(=O)Nc3nc(N[C@H]4CCCC[C@H]4NC(=N)N)c4cc(C)ccc4n3)ccc2c1 [Example 7, N-{4-[((1S,2R)-2-{[amino(imino)methyl]amino}cyclohexyl)amino]-6-methylquinazolin-2-yl}-6-methoxy-2-naphthamide dihydrochloride] | 9.19 | 6.24 | –
Cc1ccc2nc(C(=O)NCC(C)(C)C)nc(N[C@H]3CCCC[C@H]3NC(=N)N)c2c1.Cl.Cl [Example 29, 4-[((1S,2R)-2-{[amino(imino)methyl]amino}cyclohexyl)amino]-6-methyl-N-neopentylquinazoline-2-carboxamide dihydrochloride] | – | – | 1.67
